# Tested on: L. acidophilus NCFM
# Assay: RNA-seq transcriptional analysis of L. acidophilus NCFM growing on plant glycosides
# Assay type: cell-based, Lactobacillus acidophilus
# [1] = gene LBA0282 (Hypothetical protein)
# [2] = gene LBA0327 (Replication protein)
# [3] = gene LBA0328 (Hypothetical protein)
# [4] = gene LBA0330 (Hypothetical protein)
# [5] = gene LBA0457 (Hypothetical protein)
# [6] = gene LBA0485 (Hypothetical protein)
# [7] = gene LBA0486 (Hypothetical protein)
# [8] = gene LBA0487 (Hypothetical protein.)
# [9] = gene LBA0492 (Hypothetical protein)
# [10] = gene LBA0541 (Cadmium-transporting ATPase)
# [11] = gene LBA0542 (Putative heavy-metal-transporting alpase)
# [12] = gene LBA0543 (Hypothetical protein)
# [13] = gene LBA0544 (Transcriptional regulator)
# [14] = gene LBA0555 (Myosin-crossreactive antigen)
# [15] = gene LBA0564 (HAD family hydrolase)
# [16] = gene LBA0574 (ABC multi drug exporter)
# [17] = gene LBA0575 (ABC multi drug exporter)
# [18] = gene LBA0604 (Immunity protein)
# [19] = gene LBA0605 (Putative hydrolase)
# [20] = gene LBA0608 (Hypothetical protein)
# [21] = gene LBA0631 (Hypothetical protein)
# [22] = gene LBA0649 (Myosin-crossreactive antigen)
# [23] = gene LBA0728 (Hypothetical protein LBA0728)
# [24] = gene LBA1025 (Aldo/keto reductase family oxidoreductase)
# [25] = gene LBA1026 (Aldo/keto reduetase family oxidoreductase)
structure (smiles),measurement,setting,value
OCc1ccccc1O[C@@H]1O[C@H](CO)[C@@H](O)[C@H](O)[C@H]1O [Salicin],Log2 differential normalized TPM ratio compared to lactose,[1],0
same,Transcripts per million (rpm),[1],34.3 rpm
same,Log2 differential normalized TPM ratio compared to glucose,[2],0
same,Log2 differential normalized TPM ratio compared to lactose,[2],−0.3
same,Transcripts per million (rpm),[2],8.1 rpm
same,Log2 differential normalized TPM ratio compared to glucose,[3],−0.1
same,Log2 differential normalized TPM ratio compared to lactose,[3],0
same,Transcripts per million (rpm),[3],13.3 rpm
same,Log2 differential normalized TPM ratio compared to glucose,[4],0.4
same,Log2 differential normalized TPM ratio compared to lactose,[4],0
same,Transcripts per million (rpm),[4],27.3 rpm
same,Log2 differential normalized TPM ratio compared to glucose,[5],1.8
same,Log2 differential normalized TPM ratio compared to lactose,[5],0.8
same,Transcripts per million (rpm),[5],1746 rpm
same,Log2 differential normalized TPM ratio compared to glucose,[6],1.9
same,Log2 differential normalized TPM ratio compared to lactose,[6],−0.5
same,Transcripts per million (rpm),[6],770.3 rpm
same,Log2 differential normalized TPM ratio compared to glucose,[7],2.4
same,Log2 differential normalized TPM ratio compared to lactose,[7],−0.4
same,Transcripts per million (rpm),[7],1205 rpm
same,Log2 differential normalized TPM ratio compared to glucose,[8],1.5
same,Log2 differential normalized TPM ratio compared to lactose,[8],0.2
same,Transcripts per million (rpm),[8],96.1 rpm
same,Log2 differential normalized TPM ratio compared to glucose,[9],2
same,Log2 differential normalized TPM ratio compared to lactose,[9],−0.5
same,Transcripts per million (rpm),[9],32.8 rpm
same,Log2 differential normalized TPM ratio compared to glucose,[10],2
same,Log2 differential normalized TPM ratio compared to lactose,[10],−0.3
same,Transcripts per million (rpm),[10],143.6 rpm
same,Log2 differential normalized TPM ratio compared to glucose,[11],1.8
same,Log2 differential normalized TPM ratio compared to lactose,[11],−0.4
same,Transcripts per million (rpm),[11],311.6 rpm
same,Log2 differential normalized TPM ratio compared to glucose,[12],2
same,Log2 differential normalized TPM ratio compared to lactose,[12],−0.4
same,Transcripts per million (rpm),[12],266.3 rpm
same,Log2 differential normalized TPM ratio compared to glucose,[13],1.7
same,Log2 differential normalized TPM ratio compared to lactose,[13],−0.3
same,Transcripts per million (rpm),[13],342.8 rpm
same,Log2 differential normalized TPM ratio compared to glucose,[14],1.4
same,Log2 differential normalized TPM ratio compared to lactose,[14],−0.5
same,Transcripts per million (rpm),[14],118.8 rpm
same,Log2 differential normalized TPM ratio compared to glucose,[15],0.4
same,Log2 differential normalized TPM ratio compared to lactose,[15],−0.2
same,Transcripts per million (rpm),[15],1.4 rpm
same,Log2 differential normalized TPM ratio compared to glucose,[16],−0.7
same,Log2 differential normalized TPM ratio compared to lactose,[16],−1
same,Transcripts per million (rpm),[16],54.6 rpm
same,Log2 differential normalized TPM ratio compared to glucose,[17],−0.5
same,Log2 differential normalized TPM ratio compared to lactose,[17],−0.8
same,Transcripts per million (rpm),[17],55.6 rpm
same,Log2 differential normalized TPM ratio compared to glucose,[18],−0.1
same,Log2 differential normalized TPM ratio compared to lactose,[18],−0.6
same,Transcripts per million (rpm),[18],14.3 rpm
same,Log2 differential normalized TPM ratio compared to glucose,[19],1.2
same,Log2 differential normalized TPM ratio compared to lactose,[19],0.2
same,Transcripts per million (rpm),[19],6.3 rpm
same,Log2 differential normalized TPM ratio compared to glucose,[20],1.4
same,Log2 differential normalized TPM ratio compared to lactose,[20],0.3
same,Transcripts per million (rpm),[20],95.4 rpm
same,Log2 differential normalized TPM ratio compared to glucose,[21],2.9
same,Log2 differential normalized TPM ratio compared to lactose,[21],−0.2
same,Transcripts per million (rpm),[21],9342.6 rpm
same,Log2 differential normalized TPM ratio compared to glucose,[22],1.6
same,Log2 differential normalized TPM ratio compared to lactose,[22],0.8
same,Transcripts per million (rpm),[22],116.3 rpm
same,Log2 differential normalized TPM ratio compared to glucose,[23],4.1
same,Log2 differential normalized TPM ratio compared to lactose,[23],2.3
same,Transcripts per million (rpm),[23],43.8 rpm
same,Log2 differential normalized TPM ratio compared to lactose,gene LBA0802 (Hypothetical protein),−0.2
same,Log2 differential normalized TPM ratio compared to glucose,gene LBA0861 (Polyferredoxin),0.1
same,Log2 differential normalized TPM ratio compared to lactose,gene LBA0861 (Polyferredoxin),−0.5
same,Transcripts per million (rpm),gene LBA0861 (Polyferredoxin),196.3 rpm
same,Log2 differential normalized TPM ratio compared to glucose,gene LBA1023 (Oxidoreductase),−0.4
same,Log2 differential normalized TPM ratio compared to lactose,gene LBA1023 (Oxidoreductase),−0.7
same,Transcripts per million (rpm),gene LBA1023 (Oxidoreductase),132.8 rpm
same,Log2 differential normalized TPM ratio compared to glucose,[24],−0.4
same,Log2 differential normalized TPM ratio compared to lactose,[24],−0.5
same,Transcripts per million (rpm),[24],23.7 rpm
same,Log2 differential normalized TPM ratio compared to glucose,[25],−0.3
same,Log2 differential normalized TPM ratio compared to lactose,[25],−0.8
same,Transcripts per million (rpm),[25],26.1 rpm
same,Log2 differential normalized TPM ratio compared to glucose,gene LBA1027 (Oxidoreductase),2.2
same,Log2 differential normalized TPM ratio compared to lactose,gene LBA1027 (Oxidoreductase),0.6
